The supplement of paper PMC12592484

Tests used:
Assay in all cases: drug sensitivity score (DSS2, normalised partial AUC of dose-response, 72 h CellTiter-Glo viability) (DSS (dimensionless)); higher = more sensitive (stronger growth inhibition / cytotoxicity); extreme values may be limits of the assay
CAF#6 = test system: CAF#6 (primary prostate cancer-associated fibroblasts of iCAF-like type)
Outline: (§1)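 Viability of low-passage primary prostate cancer-associated fibroblasts, PF179T, WPMY-1, LNCaP and 22Rv1 cells was read by CellTiter-Glo 2.0 luminescence 72 h after seeding onto compounds pre-dispensed in 384-well plates at five doses over a 10,000-fold range. Readings were scaled between vehicle and positive-control wells. Sensitivity is reported as a drug sensitivity score from BREEZE, namely a partial area under the fitted logistic curve divided by the log of its upper asymptote, where higher means more sensitive.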

CAF#1 = test system: CAF#1 (primary prostate cancer-associated fibroblasts of myCAF-like type)
Outline: as §1

WPMY-1 = test system: WPMY-1
Outline: as §1

22Rv1 = test system: 22Rv1
Outline: as §1

CAF#5 = test system: CAF#5 (primary prostate cancer-associated fibroblasts of myCAF-like type)
Outline: as §1

CAF#7 = test system: CAF#7 (primary prostate cancer-associated fibroblasts of myCAF-like type)
Outline: as §1

CAF#3 = test system: CAF#3 (primary prostate cancer-associated fibroblasts of myCAF-like type)
Outline: as §1

PF179T = test system: PF179T
Outline: as §1

LNCAP = test system: LNCAP
Outline: as §1

CAF#2 = test system: CAF#2 (primary prostate cancer-associated fibroblasts of iCAF-like type)
Outline: as §1

CAF#4 = test system: CAF#4 (primary prostate cancer-associated fibroblasts of iCAF-like type)
Outline: as §1

Row | SMILES | drug sensitivity score (CAF#6) | drug sensitivity score (CAF#1) | drug sensitivity score (WPMY-1) | drug sensitivity score (22Rv1) | drug sensitivity score (CAF#5) | drug sensitivity score (CAF#7) | drug sensitivity score (CAF#3) | drug sensitivity score (PF179T) | drug sensitivity score (LNCAP) | drug sensitivity score (CAF#2) | drug sensitivity score (CAF#4)
1 | O=C(O)C1(C(=O)O)CCC1.[NH2-].[NH2-].[Pt+2] [Carboplatin] (tested concentration range 10-100000 nM) | 1.6 | 4.8 | 7.7 | 6.7 | 5.5 | 0.4 | 2.8 | 6 | 5.5 | 8.3 | 5.5
2 | CC(C)C[C@H](NC(=O)[C@H](CCc1ccccc1)NC(=O)CN1CCOCC1)C(=O)N[C@@H](Cc1ccccc1)C(=O)N[C@@H](CC(C)C)C(=O)[C@@]1(C)CO1 [Carfilzomib] (tested concentration range 0.1-1000 nM) | 15.9 | 17.5 | 31.5 | 27.5 | 22 | 16.7 | 17.1 | 20.3 | 27.2 | 18.9 | 13.3
3 | Cc1ccc(-c2cc(C(F)(F)F)nn2-c2ccc(S(N)(=O)=O)cc2)cc1 [Celecoxib] (tested concentration range 1-10000 nM) | 0 | 0 | 0 | 0 | 0 | 0 | 0 | 0 | 1.2 | 0 | 0
4 | C[C@@H]1COCCN1c1cc(C2([S@](C)(=N)=O)CC2)nc(-c2cc[nH]c3nccc2-3)n1 [Ceralasertib] (tested concentration range 2.5-25000 nM) | 6.2 | 6.6 | 13.9 | 10 | 7.8 | 6.3 | 6.7 | 8.1 | 10.7 | 9.3 | 8
5 | CCS(=O)(=O)N1CCN(c2ccc(Nc3ncc(C(N)=O)c(NC4CC4)n3)cc2)CC1 [Cerdulatinib] (tested concentration range 1-10000 nM) | 0.4 | 6.1 | 8.8 | 0 | 3.8 | 0.1 | 0 | 2.7 | 4.4 | 3.7 | 0
6 | Cc1cc(Nc2ncc(Cl)c(Nc3ccccc3S(=O)(=O)C(C)C)n2)c(OC(C)C)cc1C1CCNCC1 [Ceritinib] (tested concentration range 0.2-2500 nM) | 1.2 | 4.6 | 1 | 3.1 | 2.6 | 2.3 | 3 | 0.9 | 4.2 | 5.1 | 2.4
7 | CCN(CC)CCCC(C)Nc1ccnc2cc(Cl)ccc12 (stereo not given) [Chloroquine] (tested concentration range 10-100000 nM) | 8.2 | 5.7 | 10.4 | 11.2 | 7.4 | 8.6 | 8.4 | 9.5 | 9.8 | 9.8 | 8.6
8 | N.N.[Cl][Pt][Cl] [Cisplatin] (tested concentration range 10-100000 nM) | 4.3 | 11.8 | 16 | 15 | 14.6 | 4.8 | 5.7 | 11.4 | 5.6 | 18.1 | 5
9 | Nc1nc(Cl)nc2c1ncn2[C@H]1C[C@H](O)[C@@H](CO)O1 [Cladribine] (tested concentration range 0.1-1000 nM) | 0 | 0 | 5.1 | 1.7 | 0.1 | 0.6 | 0.5 | 3.9 | 5.2 | 2.7 | 0
10 | Nc1nc(Cl)nc2c1ncn2[C@@H]1O[C@H](CO)[C@@H](O)[C@@H]1F [Clofarabine] (tested concentration range 1-10000 nM) | 6.1 | 6.5 | 16.9 | 13.9 | 7.3 | 9.3 | 5 | 10.6 | 18.5 | 10.6 | 4.6
11 | CCN(CC)CCOc1ccc(C(=C(Cl)c2ccccc2)c2ccccc2)cc1 [Clomifene] (tested concentration range 1-10000 nM) | 4 | 2.3 | 5.5 | 5.7 | 3.7 | 3.7 | 4.2 | 6 | 4.8 | 5.8 | 4
12 | O=C(c1ccc(F)c(F)c1Nc1ccc(I)cc1F)N1CC(O)([C@@H]2CCCCN2)C1 [Cobimetinib] (tested concentration range 0.1-1000 nM) | 3.3 | 0.5 | 4.2 | 9.6 | 1.9 | 5.3 | 0 | 2.1 | 0 | 3.9 | 1.6
13 | COc1c(OCCCN2CCOCC2)ccc2c1N=C(NC(=O)c1cnc(N)nc1)N1CCN=C21 [Copanlisib] (tested concentration range 0.1-1000 nM) | 7 | 7.7 | 7.7 | 14.1 | 9.9 | 7.5 | 6 | 8.8 | 4.7 | 9.8 | 8.7
14 | CC1(COc2ccc3c(c2)ncn3-c2ccc3cccc(N4CCC(N)CC4)c3n2)COC1 [Crenolanib] (tested concentration range 1-10000 nM) | 7 | 8.9 | 7.2 | 4.9 | 9.3 | 3.5 | 7.5 | 4.7 | 4.4 | 7.3 | 3.2
15 | C[C@@H](Oc1cc(-c2cnn(C3CCNCC3)c2)cnc1N)c1c(Cl)ccc(F)c1Cl [Crizotinib] (tested concentration range 0.1-1000 nM) | 2.5 | 0 | 0.5 | 0 | 1.5 | 0.8 | 2.7 | 1.4 | 0 | 1.4 | 0
16 | Nc1ccn([C@@H]2O[C@H](CO)[C@@H](O)[C@@H]2O)c(=O)n1 [Cytarabine] (tested concentration range 1-10000 nM) | 0.5 | 1.8 | 7.7 | 14.3 | 1.9 | 2.6 | 0 | 12.9 | 11.9 | 10 | 5.4
17 | CC(C)(C)c1nc(-c2cccc(NS(=O)(=O)c3c(F)cccc3F)c2F)c(-c2ccnc(N)n2)s1 [Dabrafenib] (tested concentration range 0.2-2500 nM) | 2.6 | 1.4 | 0 | 5.6 | 3.5 | 4.1 | 4.5 | 2.1 | 4.8 | 0.2 | 0
18 | COc1cc2ncnc(Nc3ccc(F)c(Cl)c3)c2cc1NC(=O)/C=C/CN1CCCCC1 [Dacomitinib] (tested concentration range 0.1-1000 nM) | 0 | 0.7 | 1 | 1 | 0 | 0 | 0.6 | 0.2 | 1.4 | 1 | 1.4
19 | Cc1c2oc3c(C)ccc(C(=O)N[C@@H]4C(=O)N[C@H](C(C)C)C(=O)N5CCC[C@H]5C(=O)N(C)CC(=O)N(C)[C@@H](C(C)C)C(=O)O[C@@H]4C)c3nc-2c(C(=O)N[C@@H]2C(=O)N[C@H](C(C)C)C(=O)N3CCC[C@H]3C(=O)N(C)CC(=O)N(C)[C@@H](C(C)C)C(=O)O[C@@H]2C)c(N)c1=O [Dactinomycin] (tested concentration range 0.1-1000 nM) | 19.8 | 24.7 | 26.5 | 31.8 | 21.1 | 22.6 | 23 | 17.2 | 39.3 | 23.2 | 17.2
20 | O=C(/C=C/c1cccnc1)NCCCCC1CCN(C(=O)c2ccccc2)CC1 [Daporinad] (tested concentration range 0.1-1000 nM) | 16.5 | 13.9 | 29.4 | 25.6 | 13.9 | 17.5 | 12.8 | 21.3 | 26.9 | 25.8 | 23.6
21 | CCN(CC)CCN(Cc1ccc(-c2ccc(C(F)(F)F)cc2)cc1)C(=O)Cn1c(SCc2ccc(F)cc2)nc(=O)c2c1CCC2 [Darapladib] (tested concentration range 0.1-1000 nM) | 0 | 0 | 1.3 | 3.7 | 0.7 | 0 | 0.1 | 0 | 0 | 0 | 1
22 | CC(O)c1cc(C(=O)N[C@@H](C)Cn2ccc(-c3ccc(C#N)c(Cl)c3)n2)n[nH]1 (stereo not given in full) [Darolutamide] (tested concentration range 0.2-2500 nM) | 0 | 3.1 | 0 | 0.6 | 2.9 | 0 | 0.1 | 0 | 0.1 | 2.2 | 4.4
23 | Cc1nc(Nc2ncc(C(=O)Nc3c(C)cccc3Cl)s2)cc(N2CCN(CCO)CC2)n1 [Dasatinib] (tested concentration range 0.1-1000 nM) | 13 | 13.8 | 5.3 | 0 | 15.2 | 15.3 | 13.7 | 11.7 | 5 | 15.5 | 10.3
24 | COc1cccc2c1C(=O)c1c(O)c3c(c(O)c1C2=O)C[C@@](O)(C(C)=O)C[C@@H]3O[C@H]1C[C@H](N)[C@H](O)[C@H](C)O1 [Daunorubicin] (tested concentration range 0.1-1000 nM) | 7.9 | 7.3 | 10.7 | 12.9 | 6.6 | 8.4 | 6.4 | 8.6 | 17.5 | 9.4 | 4.2
25 | CC[C@@](C)(Nc1ccnc(-c2c[nH]c3ncccc23)n1)C(=O)NCC(F)(F)F [Decernotinib] (tested concentration range 1-10000 nM) | 0 | 0.2 | 0.7 | 0 | 0 | 0 | 0.5 | 0 | 0 | 0.1 | 0
